Results taken from US20150105252A1, “SUBSTITUTED PYRAZOLES AS HERBICIDES” (E I DU PONT DE NEMOURS AND COMPANY, priority 2013, published 2015).

How the values were obtained:
[1] = test system: galium; assay: Test C postemergence; format: in vivo, Galium aparine
Method in brief: (§1)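 Postemergence values come from plants sprayed at the 1- to 4-leaf stage (2–18 cm) in peat moss–vermiculite medium; preemergence values from seeds treated in a loam–sand blend. Both evaluated visually against controls after 13–15 greenhouse days, scale 0–100.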

[2] = test system: velvetleaf; assay: Test C postemergence; format: in vivo, Abutilon theophrasti; details: postemergence, 250 g ai/ha; scale 0 to 100 (0 no effect, 100 complete control)
Method in brief: as §1

[3] = test system: barnyardgrass; assay: Test C postemergence; format: in vivo, Echinochloa crus-galli
Method in brief: as §1

[4] = test system: soybean; assay: Test C postemergence; format: in vivo, Glycine max; details: postemergence
Method in brief: as §1

[5] = test system: lambsquarters; assay: Test C postemergence; format: in vivo, Chenopodium album
Method in brief: as §1

[6] = test system: chickweed; assay: Test C postemergence; format: in vivo, Stellaria media
Method in brief: as §1

[7] = test system: kochia; assay: Test C postemergence; format: in vivo, Kochia scoparia
Method in brief: as §1

[8] = test system: waterhemp; assay: Test C postemergence; format: in vivo, Amaranthus rudis; details: postemergence, 250 g ai/ha; scale 0 to 100 (0 no effect, 100 complete control)
Method in brief: as §1

[9] = test system: morningglory; assay: Test C postemergence; format: in vivo, Ipomoea coccinea
Method in brief: as §1

[10] = test system: pigweed; assay: Test C postemergence; format: in vivo, Amaranthus retroflexus; details: postemergence
Method in brief: as §1

[11] = test system: foxtail, giant; assay: Test C postemergence; format: in vivo, Setaria faberii
Method in brief: as §1

[12] = test system: lambsquarters; assay: Test C preemergence; format: in vivo, Chenopodium album; details: preemergence
Method in brief: as §1

[13] = test system: nutsedge, yellow; assay: Test C postemergence; format: in vivo, Cyperus esculentus
Method in brief: as §1

[14] = test system: oat, wild; assay: Test C postemergence; format: in vivo, Avena fatua
Method in brief: as §1

[15] = test system: ryegrass, Italian; assay: Test C postemergence; format: in vivo, Lolium multiflorum; details: postemergence
Method in brief: as §1

[16] = test system: ragweed; assay: Test C postemergence; format: in vivo, Ambrosia elation; details: postemergence
Method in brief: as §1

[17] = Postemergence, 31 g ai/ha, visually evaluated after 13 to 15 days
[18] = postemergence, 62 g ai/ha, scale 0 to 100
[19] = postemergence, 250 g ai/ha, scale 0 to 100 (0 no effect, 100 complete control)
[20] = postemergence, 125 g ai/ha, scale 0 to 100, 0 no effect, 100 complete control
[21] = 250 g ai/ha, scale 0 to 100 (0 no effect, 100 complete control)
[22] = 125 g ai/ha, scale 0 to 100, 0 no effect, 100 complete control

For `CCOc1cc(C(=O)NC2CC2)nn1Cc1ccnc(C(F)(F)F)c1` [Compound 189], which “Plant response rating (scale of 0 to 100 where 0 is no effect and 100 is complete control), Galium” value [1, 17] is on record?
The value was 80.

What about the “Galium plant response rating” value [1, 18] of the same molecule?
The value was 80.

What about the “Plant response rating, Galium” value [1, 19] of the same molecule?
The value was 90.

What about the “Plant response rating, Galium” value [1, 20] of the same molecule?
Its value is 90.

And the “Plant response rating, Velvetleaf” value [2]?
Its value is 75.

What about the “Plant response rating (scale of 0 to 100 where 0 is no effect and 100 is complete control), Barnyardgrass” value [3, 17] of the same molecule?
Its value is 5.

What about the “Barnyardgrass plant response rating” value [3, 18] of the same molecule?
The value was 5.

What about the “Plant response rating, Barnyardgrass” value [3, 19] of the same molecule?
Its value is 55.

And the “Plant response rating, Barnyardgrass” value [3, 20]?
The value was 20.

And the “Plant response rating, Soybean” value [4, 21]?
The value was 95.

And the “Soybean plant response rating” value [4, 22]?
Its value is 95.

What about the “Plant response rating (scale of 0 to 100 where 0 is no effect and 100 is complete control), Lambsquarters” value [5, 17] of the same molecule?
The value was 60.

And the “Lambsquarters plant response rating” value [5, 18]?
Its value is 70.

And the “Plant response rating, Lambsquarters” value [5, 19]?
The value was 85.

And the “Plant response rating, Lambsquarters” value [5, 20]?
The value was 95.

And the “Plant response rating (scale of 0 to 100 where 0 is no effect and 100 is complete control), Chickweed” value [6, 17]?
The value was 80.

And the “Chickweed plant response rating” value [6, 18]?
The value was 80.

What about the “Plant response rating, Chickweed” value [6, 19] of the same molecule?
Its value is 90.

And the “Plant response rating, Chickweed” value [6, 20]?
The value was 85.

And the “Plant response rating (scale of 0 to 100 where 0 is no effect and 100 is complete control), Kochia” value [7, 17]?
Its value is 85.

And the “Kochia plant response rating” value [7, 18]?
Its value is 90.

And the “Plant response rating, Kochia” value [7, 19]?
The value was 90.

And the “Plant response rating, Kochia” value [7, 20]?
The value was 90.

And the “Plant response rating, Waterhemp” value [8]?
The value was 90.

And the “Plant response rating (scale of 0 to 100 where 0 is no effect and 100 is complete control), Morningglory” value [9, 17]?
The value was 75.

What about the “Morningglory plant response rating” value [9, 18] of the same molecule?
Its value is 80.

And the “Plant response rating, Morningglory” value [9, 19]?
Its value is 98.

What about the “Plant response rating, Morningglory” value [9, 20] of the same molecule?
Its value is 95.

What about the “Pigweed plant response rating” value ([10]; 62 g ai/ha, scale 0 to 100) of the same molecule?
Its value is 75.

What about the “Plant response rating, Pigweed” value [10, 21] of the same molecule?
The value was 90.

What about the “Plant response rating, Pigweed” value [10, 22] of the same molecule?
Its value is 85.

And the “Plant response rating (scale of 0 to 100 where 0 is no effect and 100 is complete control), Foxtail, Giant” value [11, 17]?
The value was 10.

What about the “Foxtail, Giant plant response rating” value [11, 18] of the same molecule?
Its value is 10.

And the “Plant response rating, Foxtail, Giant” value [11, 19]?
Its value is 75.

What about the “Plant response rating, Foxtail, Giant” value [11, 20] of the same molecule?
Its value is 25.

What about the “Lambsquarters plant response rating” value ([12]; 31 g ai/ha, visual rating, scale 0 to 100 (0 no effect, 100 complete control), 13 to 15 days) of the same molecule?
The value was 98.

And the “Lambsquarters plant response rating” value ([12]; 62 g ai/ha, scale 0 to 100 (0 no effect, 100 complete control), 13 to 15 days)?
The value was 100.

And the “Plant response rating, Lambsquarters” value ([12]; 125 g ai/ha, 13 to 15 days, scale 0 to 100, 0 = no effect, 100 = complete control)?
Its value is 100.

What about the “Lambsquarters plant response rating” value ([12]; 250 g ai/ha, scale 0 to 100, 0 is no effect, 100 is complete control) of the same molecule?
Its value is 100.

And the “Plant response rating (scale of 0 to 100 where 0 is no effect and 100 is complete control), Nutsedge, Yellow” value [13, 17]?
The value was 5.

What about the “Nutsedge, Yellow plant response rating” value [13, 18] of the same molecule?
The value was 5.

And the “Plant response rating, Nutsedge, Yellow” value [13, 19]?
Its value is 20.

And the “Plant response rating, Nutsedge, Yellow” value [13, 20]?
The value was 5.

What about the “Plant response rating (scale of 0 to 100 where 0 is no effect and 100 is complete control), Oat, Wild” value [14, 17] of the same molecule?
The value was 10.

And the “Oat, Wild plant response rating” value [14, 18]?
The value was 15.

And the “Plant response rating, Oat, Wild” value [14, 19]?
The value was 60.

And the “Plant response rating, Oat, Wild” value [14, 20]?
The value was 30.

And the “Plant response rating, Ryegrass, Italian” value [15, 21]?
Its value is 40.

What about the “Plant response rating, Ryegrass, Italian” value [15, 22] of the same molecule?
Its value is 5.

What about the “Plant response rating, Ragweed” value [16, 21] of the same molecule?
Its value is 90.

And the “Plant response rating, Ragweed” value [16, 22]?
The value was 75.
